Read-outs that look alike come from different tables or passages of the source.
Columns and labels:
[1] = tested on: PrP^Sc in dividing ScN2a-cl3 cells; assay type: cell-based, mouse
PrP^C in T98G cells = assay type: cell-based, human; conditions: read-out: EC50 (μM) ELISA potency, PrP^C in T98G cells
[2] = Hepatic microsomal stability, human; conditions: human liver microsomes
[3] = Hepatic microsomal stability, mouse; conditions: mouse liver microsomes
[4] = Table 29, 2-AMT analogs tested for potency, usually n = 3 or more

In the case of `Cc1ccc(Nc2nc(-c3ccc(OC(F)(F)F)cc3)cs2)nc1` [IND26, (5-Methyl-pyridin-2-yl)-[4-(4-trifluoromethoxy-phenyl)-thiazol-2-yl]-amine], the EC50 ([1]; AMT analogs tested for potency) is reported as > 10000 nM, the EC50 [1, 4] is reported as > 10000 nM and the melting point is reported as 205 to 207 °C.
Compound `Cc1ccc(Nc2nc(-c3cccc(C#N)c3)cs2)nc1` [IND38, 3-[2-(5-Methyl-pyridin-2-ylamino)-thiazol-4-yl]-benzonitrile] has an EC50 ([1]; AMT analogs tested for potency) of 2290 nM, an EC50 [1, 4] of 2290 nM and a melting point of 268 to 272 °C.
In the case of `Cc1ccnc(Nc2nc(-c3ccc4c(c3)OCCO4)cs2)c1` [IND57, [4-(2,3-Dihydro-benzo[1,4]dioxin-6-yl)-thiazol-2-yl]-(4-methyl-pyridin-2-yl)-amine], the EC50 ([1]; AMT analogs tested for potency) is reported as > 10000 nM, the EC50 [1, 4] is reported as > 10000 nM and the melting point is reported as 230 to 240 °C.
Compound `COc1cc(C(=O)c2cc(Cl)ccc2N)cc(OC)c1OC` [IND1323] has an EC50 (PrP^C in T98G cells) of 0.085 µM.
Work on `CC1=CC(C)(C)N(S(=O)(=O)c2ccc(C)cc2)c2cc(C)ccc21` [IND5418] yielded an EC50 (PrP^C in T98G cells) of 0.649 µM.
For `CCOC(=O)c1[nH]c(C)c(C(=O)c2ccc(C)cc2)c1C` [IND5672], the EC50 (PrP^C in T98G cells) was 0.593 µM.
In the case of `CCOc1ccccc1C1C(C#N)=C(N)Oc2cc(N(C)C)ccc21` (stereo not shown) [IND8541], the EC50 (PrP^C in T98G cells) is reported as 0.155 µM, the “Hepatic Extraction Ratio Human” value ([2]; predicted hepatic extraction) is reported as 0.77 and the half-life at 1 μM ([2]; human, pH 7.4) is reported as 20.3 min. The “Hepatic Extraction Ratio Mouse” value ([3]; predicted hepatic extraction) was 0.97 and the half-life at 1 μM ([3]; mouse, pH 7.4) was 1.71 min.
Compound `Cc1ccn2c(-c3csc(Nc4ccc(N(C)C)nc4)n3)c(C)nc2c1` [IND9756] has an EC50 (PrP^C in T98G cells) of 0.18 µM.
With `CCOc1ccc2c(c1)C(C)=CC(C)(C)N2S(=O)(=O)c1ccc(C)cc1` [IND16365] the EC50 (PrP^C in T98G cells) was 0.304 µM.
Work on `CN(C)c1ccc2c(c1)OC(N)=C(C#N)C2c1cccc(F)c1` (stereo not shown) [IND17990] yielded an EC50 (PrP^C in T98G cells) of 0.031 µM.
Work on `Cc1cc(C)c(S(=O)(=O)NCc2ccncc2)c(C)c1` [IND18762] yielded an EC50 (PrP^C in T98G cells) of 4.13 µM.
With `CN(C)c1ccc2c(c1)OC(N)=C(C#N)C2c1cccs1` (stereo not shown) [IND23846] the EC50 (PrP^C in T98G cells) was 0.21 µM.
For `COC(=O)c1[nH]c2c(c1C)C(=O)CC(c1cccs1)C2` (stereo not shown) [IND73602], the EC50 (PrP^C in T98G cells) was 0.521 µM.
Work on `N#Cc1c(NC(=O)CCc2cccs2)sc2c1CCCC2` [IND82865] yielded an EC50 (PrP^C in T98G cells) of 0.242 µM.
`O=C(Nc1ccc(I)cn1)c1cccc(F)c1` [IND84911] gave an EC50 (PrP^C in T98G cells) of 0.55 µM.
With `CCc1nnc(NC(=O)c2ccoc2COc2ccccc2)s1` [IND85692] the EC50 (PrP^C in T98G cells) was 2.28 µM.
`O=C(Nc1ccncc1)C1CCCN1S(=O)(=O)c1ccc2ccccc2c1` (stereo not shown) [IND86287] showed an EC50 (PrP^C in T98G cells) of 2.65 µM.
Compound `Cc1nc2ncccn2c1-c1csc(Nc2ccc(Cl)cc2)n1` [IND115948] has an EC50 (PrP^C in T98G cells) of 1.85 µM.
